Data: PMC7265341, “Quantifying CDK inhibitor selectivity in live cells” (Nature Communications, 2020)
Read-outs that look alike come from different tables or passages of the source.

How the values were obtained:
[1] = target: CDK4/Cyclin D1 (Homo sapiens, UniProt P11802); assay: NanoBRET live-cell target engagement, NanoLuc-CDK4/Cyclin D1 in HEK-293; assay type: binding; details: 10µM, read-out: CDK4/D1 Inhibition at 10µM (%)
[2] = target: CDK6/Cyclin D1 (Homo sapiens, UniProt Q00534); assay: NanoBRET live-cell target engagement, NanoLuc-CDK6/Cyclin D1 in HEK-293; assay type: binding; details: read-out: CDK6/D1 Inhibition at 10µM (%), 10µM
Sequence of CDK6/Cyclin D1 (Q00534 whole entry): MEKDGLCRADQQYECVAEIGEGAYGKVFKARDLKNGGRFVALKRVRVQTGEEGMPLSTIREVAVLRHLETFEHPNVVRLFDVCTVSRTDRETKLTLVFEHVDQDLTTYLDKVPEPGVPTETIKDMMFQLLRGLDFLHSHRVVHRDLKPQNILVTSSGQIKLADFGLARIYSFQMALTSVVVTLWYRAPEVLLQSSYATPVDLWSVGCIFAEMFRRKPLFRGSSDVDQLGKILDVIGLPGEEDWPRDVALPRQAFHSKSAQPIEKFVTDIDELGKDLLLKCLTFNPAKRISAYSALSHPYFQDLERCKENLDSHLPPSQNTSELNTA
Sequence of CDK6/Cyclin D1 (P24385 whole entry partner): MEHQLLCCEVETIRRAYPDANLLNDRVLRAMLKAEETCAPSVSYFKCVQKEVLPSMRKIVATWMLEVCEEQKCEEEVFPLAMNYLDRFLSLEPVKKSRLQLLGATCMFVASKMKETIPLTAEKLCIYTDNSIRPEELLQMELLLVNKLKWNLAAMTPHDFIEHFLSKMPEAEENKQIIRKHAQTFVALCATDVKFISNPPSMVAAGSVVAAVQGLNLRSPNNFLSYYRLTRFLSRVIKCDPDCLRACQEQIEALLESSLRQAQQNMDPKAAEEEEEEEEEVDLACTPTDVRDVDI

[3] = target: CDK7 (Homo sapiens, UniProt P50613); assay: NanoBRET live-cell target engagement, NanoLuc-CDK7 in HEK-293; assay type: binding; details: read-out: CDK7 Inhibition at 10µM (%), 10µM
[4] = target: CDK8/Cyclin C (Homo sapiens, UniProt P49336); assay: NanoBRET live-cell target engagement, NanoLuc-CDK8/Cyclin C in HEK-293; assay type: binding; details: read-out: CDK8/C Inhibition at 10µM (%), 10µM
Sequence of CDK8/Cyclin C (P49336 whole entry): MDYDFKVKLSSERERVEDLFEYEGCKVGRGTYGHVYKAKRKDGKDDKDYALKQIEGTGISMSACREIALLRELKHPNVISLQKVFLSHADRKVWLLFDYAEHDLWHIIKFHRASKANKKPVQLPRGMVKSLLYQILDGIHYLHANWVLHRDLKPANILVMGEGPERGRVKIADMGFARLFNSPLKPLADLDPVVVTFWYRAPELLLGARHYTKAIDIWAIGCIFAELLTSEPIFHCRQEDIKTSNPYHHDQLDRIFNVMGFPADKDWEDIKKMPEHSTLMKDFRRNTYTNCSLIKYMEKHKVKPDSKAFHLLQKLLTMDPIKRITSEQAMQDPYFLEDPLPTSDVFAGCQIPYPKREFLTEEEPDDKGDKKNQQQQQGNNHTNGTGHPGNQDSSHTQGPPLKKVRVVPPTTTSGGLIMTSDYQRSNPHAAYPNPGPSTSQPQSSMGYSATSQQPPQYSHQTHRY
Sequence of CDK8/Cyclin C (P24863 whole entry partner): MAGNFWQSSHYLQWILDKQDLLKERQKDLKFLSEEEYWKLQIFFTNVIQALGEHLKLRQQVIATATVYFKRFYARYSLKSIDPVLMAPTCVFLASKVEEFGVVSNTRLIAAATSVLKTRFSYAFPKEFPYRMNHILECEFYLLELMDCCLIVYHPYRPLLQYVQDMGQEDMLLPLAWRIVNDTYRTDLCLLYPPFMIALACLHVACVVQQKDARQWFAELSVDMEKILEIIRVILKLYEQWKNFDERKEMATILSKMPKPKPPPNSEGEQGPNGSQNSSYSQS

[5] = target: CDK9/Cyclin K (Homo sapiens, UniProt P50750); assay: NanoBRET live-cell target engagement, NanoLuc-CDK9/Cyclin K in HEK-293; assay type: binding
[6] = target: T1, CDK11A/Cyclin L2 (Homo sapiens, UniProt Q9UQ88); assay: NanoBRET live-cell target engagement, CDK11A-NanoLuc/Cyclin L2 in HEK-293; assay type: binding; details: read-out: CDK11a/L2 Inhibition at 10µM (%), 10µM
T1 sequence (Q9UQ88 1-783): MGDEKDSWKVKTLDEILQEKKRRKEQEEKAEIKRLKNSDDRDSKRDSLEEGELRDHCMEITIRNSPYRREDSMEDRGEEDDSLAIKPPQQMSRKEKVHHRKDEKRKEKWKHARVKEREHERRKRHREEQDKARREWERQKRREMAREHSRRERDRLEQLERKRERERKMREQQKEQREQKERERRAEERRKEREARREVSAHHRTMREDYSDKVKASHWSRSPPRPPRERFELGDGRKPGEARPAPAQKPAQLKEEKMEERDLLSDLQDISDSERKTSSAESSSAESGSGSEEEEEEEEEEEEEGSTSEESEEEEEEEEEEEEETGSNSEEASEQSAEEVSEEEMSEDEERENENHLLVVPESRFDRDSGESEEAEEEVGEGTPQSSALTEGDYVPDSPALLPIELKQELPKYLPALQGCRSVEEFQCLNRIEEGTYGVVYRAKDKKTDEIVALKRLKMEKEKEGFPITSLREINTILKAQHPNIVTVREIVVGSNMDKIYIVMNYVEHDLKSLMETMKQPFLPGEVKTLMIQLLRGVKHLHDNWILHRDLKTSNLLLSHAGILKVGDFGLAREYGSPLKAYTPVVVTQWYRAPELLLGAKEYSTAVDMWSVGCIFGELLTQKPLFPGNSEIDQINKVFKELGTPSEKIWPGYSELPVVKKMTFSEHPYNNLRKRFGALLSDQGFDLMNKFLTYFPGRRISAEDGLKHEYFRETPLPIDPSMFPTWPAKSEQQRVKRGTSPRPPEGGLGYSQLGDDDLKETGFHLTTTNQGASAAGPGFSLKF

[7] = target: CDK11B/Cyclin L2 (Homo sapiens, UniProt P21127); assay: NanoBRET live-cell target engagement, CDK11B-NanoLuc/Cyclin L2 in HEK-293; assay type: binding; details: read-out: CDK11b/L2 Inhibition at 10µM (%), 10µM
Sequence of CDK11B/Cyclin L2 (P21127 1-782 isoform P21127-2): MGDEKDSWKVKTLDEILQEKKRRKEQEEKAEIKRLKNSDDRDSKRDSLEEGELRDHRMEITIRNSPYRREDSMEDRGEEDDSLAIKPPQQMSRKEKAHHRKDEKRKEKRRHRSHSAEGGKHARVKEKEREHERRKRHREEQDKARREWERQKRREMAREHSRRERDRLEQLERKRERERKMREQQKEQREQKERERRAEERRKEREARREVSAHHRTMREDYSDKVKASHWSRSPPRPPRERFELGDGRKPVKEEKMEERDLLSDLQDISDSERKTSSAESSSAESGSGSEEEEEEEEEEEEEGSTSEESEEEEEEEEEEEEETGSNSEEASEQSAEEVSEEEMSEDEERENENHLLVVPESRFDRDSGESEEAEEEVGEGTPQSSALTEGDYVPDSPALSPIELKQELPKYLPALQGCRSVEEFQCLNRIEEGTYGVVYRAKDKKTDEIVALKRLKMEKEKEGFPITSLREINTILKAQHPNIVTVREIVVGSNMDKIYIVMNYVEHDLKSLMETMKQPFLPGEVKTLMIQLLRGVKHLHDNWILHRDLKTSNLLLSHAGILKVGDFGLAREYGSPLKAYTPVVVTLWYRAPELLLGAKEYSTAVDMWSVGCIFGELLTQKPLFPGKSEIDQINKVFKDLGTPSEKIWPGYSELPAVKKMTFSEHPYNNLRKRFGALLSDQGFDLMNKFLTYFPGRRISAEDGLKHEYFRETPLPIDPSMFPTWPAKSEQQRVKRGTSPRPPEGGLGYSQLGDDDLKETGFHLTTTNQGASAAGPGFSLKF

[8] = target: CDK12/Cyclin K (Homo sapiens, UniProt Q9NYV4); assay: NanoBRET live-cell target engagement, CDK12-NanoLuc/Cyclin K in HEK-293; assay type: binding; details: read-out: CDK12/K Inhibition at 10µM (%), 10µM
[9] = target: CDK13/Cyclin K (Homo sapiens, UniProt Q14004); assay: NanoBRET live-cell target engagement, CDK13-NanoLuc/Cyclin K in HEK-293; assay type: binding; details: read-out: CDK13/K Inhibition at 10µM (%), 10µM
Sequence of CDK13/Cyclin K (O75909 whole entry): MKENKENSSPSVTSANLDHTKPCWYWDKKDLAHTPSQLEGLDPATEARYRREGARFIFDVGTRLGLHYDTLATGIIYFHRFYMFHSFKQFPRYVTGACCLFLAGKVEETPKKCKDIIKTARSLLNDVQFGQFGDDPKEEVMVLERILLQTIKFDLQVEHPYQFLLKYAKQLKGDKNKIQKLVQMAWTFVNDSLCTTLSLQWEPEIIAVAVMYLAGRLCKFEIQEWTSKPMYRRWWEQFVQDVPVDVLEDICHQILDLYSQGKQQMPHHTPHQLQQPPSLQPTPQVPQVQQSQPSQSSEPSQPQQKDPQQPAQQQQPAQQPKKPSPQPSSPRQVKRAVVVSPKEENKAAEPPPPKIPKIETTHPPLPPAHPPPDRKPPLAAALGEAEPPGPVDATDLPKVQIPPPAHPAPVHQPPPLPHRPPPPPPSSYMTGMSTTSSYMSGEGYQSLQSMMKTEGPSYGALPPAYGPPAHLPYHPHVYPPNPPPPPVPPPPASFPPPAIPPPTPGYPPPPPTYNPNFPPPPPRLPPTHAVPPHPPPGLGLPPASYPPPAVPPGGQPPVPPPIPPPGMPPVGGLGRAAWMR
Sequence of CDK13/Cyclin K (Q14004 other isoform, or with tags, fused parts or gaps): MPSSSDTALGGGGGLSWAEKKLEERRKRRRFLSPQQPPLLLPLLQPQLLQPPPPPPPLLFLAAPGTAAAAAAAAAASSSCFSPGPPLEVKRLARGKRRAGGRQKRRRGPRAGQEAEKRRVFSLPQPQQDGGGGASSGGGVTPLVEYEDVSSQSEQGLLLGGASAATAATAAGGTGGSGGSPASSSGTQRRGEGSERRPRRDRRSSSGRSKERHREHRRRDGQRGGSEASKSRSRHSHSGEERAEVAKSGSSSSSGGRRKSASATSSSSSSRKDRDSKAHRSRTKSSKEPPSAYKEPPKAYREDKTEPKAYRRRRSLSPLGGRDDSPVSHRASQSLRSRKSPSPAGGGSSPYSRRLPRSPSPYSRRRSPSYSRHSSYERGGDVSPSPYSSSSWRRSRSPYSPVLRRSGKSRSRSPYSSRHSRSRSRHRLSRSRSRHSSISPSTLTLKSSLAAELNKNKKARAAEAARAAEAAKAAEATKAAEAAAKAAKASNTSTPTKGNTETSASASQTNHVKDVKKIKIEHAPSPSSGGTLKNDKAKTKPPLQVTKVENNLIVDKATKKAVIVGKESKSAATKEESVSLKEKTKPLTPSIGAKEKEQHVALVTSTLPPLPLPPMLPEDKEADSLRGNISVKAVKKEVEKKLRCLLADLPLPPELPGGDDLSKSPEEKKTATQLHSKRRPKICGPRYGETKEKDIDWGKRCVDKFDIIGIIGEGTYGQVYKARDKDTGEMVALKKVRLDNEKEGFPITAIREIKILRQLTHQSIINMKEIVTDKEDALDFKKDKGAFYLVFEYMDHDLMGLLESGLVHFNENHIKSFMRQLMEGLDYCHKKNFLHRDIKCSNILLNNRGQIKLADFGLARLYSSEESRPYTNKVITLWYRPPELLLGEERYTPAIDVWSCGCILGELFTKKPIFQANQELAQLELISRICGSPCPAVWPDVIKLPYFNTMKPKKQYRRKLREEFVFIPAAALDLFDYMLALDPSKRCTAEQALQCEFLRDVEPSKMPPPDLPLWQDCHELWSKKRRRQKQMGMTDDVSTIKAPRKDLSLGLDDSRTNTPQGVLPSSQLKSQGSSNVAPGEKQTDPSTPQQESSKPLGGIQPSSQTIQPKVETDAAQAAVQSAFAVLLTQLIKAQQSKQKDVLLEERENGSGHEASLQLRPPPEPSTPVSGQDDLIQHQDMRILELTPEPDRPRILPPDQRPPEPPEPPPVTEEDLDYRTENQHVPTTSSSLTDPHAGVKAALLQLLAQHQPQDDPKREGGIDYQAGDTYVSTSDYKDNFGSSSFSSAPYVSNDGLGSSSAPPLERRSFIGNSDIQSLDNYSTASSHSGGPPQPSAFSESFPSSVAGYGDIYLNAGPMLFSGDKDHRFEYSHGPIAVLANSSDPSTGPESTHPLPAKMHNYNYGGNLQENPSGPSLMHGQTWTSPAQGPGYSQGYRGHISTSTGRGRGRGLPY

[10] = target: CDK20/Cyclin H (Homo sapiens, UniProt Q8IZL9); assay: NanoBRET live-cell target engagement, NanoLuc-CDK20/Cyclin H in HEK-293; assay type: binding; details: read-out: CDK20/H Inhibition at 10µM (%), 10µM
[11] = target: CDK19/Cyclin C (Homo sapiens, UniProt Q9BWU1); assay: NanoBRET live-cell target engagement, NanoLuc-CDK19/Cyclin C in HEK-293; details: read-out: CDK19/C Inhibition at 10µM (%), 10µM
[12] = target: CDK10/Cyclin L2 (Homo sapiens, UniProt Q15131); assay: NanoBRET live-cell target engagement, CDK10-NanoLuc/Cyclin L2 in HEK-293; details: read-out: CDK10/L2 Inhibition at 10µM (%), 10µM
Sequence of CDK10/Cyclin L2 (Q15131 whole entry): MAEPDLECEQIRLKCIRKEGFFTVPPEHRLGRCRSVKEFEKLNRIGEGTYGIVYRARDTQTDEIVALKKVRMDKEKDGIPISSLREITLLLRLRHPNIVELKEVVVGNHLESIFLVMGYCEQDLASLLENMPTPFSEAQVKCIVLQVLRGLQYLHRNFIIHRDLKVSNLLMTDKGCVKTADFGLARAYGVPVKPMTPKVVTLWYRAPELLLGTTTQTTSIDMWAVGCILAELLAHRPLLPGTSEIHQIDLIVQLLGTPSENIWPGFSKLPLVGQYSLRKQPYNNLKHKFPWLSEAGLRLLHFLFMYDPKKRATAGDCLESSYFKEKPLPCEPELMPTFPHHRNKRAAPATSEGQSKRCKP

Sequence of CDK4/Cyclin D1 (P11802 whole entry): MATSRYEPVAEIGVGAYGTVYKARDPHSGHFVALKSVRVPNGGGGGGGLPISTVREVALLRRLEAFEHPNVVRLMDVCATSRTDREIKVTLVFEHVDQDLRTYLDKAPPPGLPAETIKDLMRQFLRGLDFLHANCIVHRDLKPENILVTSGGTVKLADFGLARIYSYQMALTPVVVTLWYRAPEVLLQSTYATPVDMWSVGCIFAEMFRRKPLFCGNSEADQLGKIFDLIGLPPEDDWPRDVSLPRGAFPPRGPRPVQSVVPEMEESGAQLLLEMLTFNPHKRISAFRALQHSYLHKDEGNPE
Sequence of CDK4/Cyclin D1 (P24385 whole entry partner): as the sequence (P24385 whole entry partner) above

CC[C@H](CO)Nc1nc(NCc2ccccc2)c2ncn(C(C)C)c2n1 [Roscovitine]
inhibition at 10 µM ([1]; average of experiments): -3.2%
inhibition at 10 µM ([1]; independent experiment 1): 29.6%
inhibition at 10 µM ([1]; independent experiment 2): -35.9%
inhibition at 10 µM ([2]; independent experiment 1): 19.8%
inhibition at 10 µM ([2]; independent experiment 2): 12.4%
inhibition at 10 µM ([3]; independent experiment 1): 52.6%
inhibition at 10 µM ([3]; independent experiment 2): 57.2%
inhibition at 10 µM ([4]; average of experiments): 2.5%
inhibition at 10 µM ([4]; independent experiment 1): 1.7%
inhibition at 10 µM ([4]; independent experiment 2): 3.4%
CDK9/K Inhibition at 10µM (%) ([5]; 10 µM): 52.2%
inhibition at 10 µM ([5]; read-out: CDK9/K Inhibition at 10µM (%)): 50.4%
inhibition at 10 µM ([6]; average of experiments): 2.5%
inhibition at 10 µM ([6]; independent experiment 2): -3.8%
inhibition at 10 µM ([7]; average of experiments): 7.8%
inhibition at 10 µM ([7]; independent experiment 1): 11.9%
inhibition at 10 µM ([7]; independent experiment 2): 3.7%
inhibition at 10 µM ([8]; independent experiment 1): 7.1%
inhibition at 10 µM ([8]; independent experiment 2): 15.8%
inhibition at 10 µM ([9]; average of experiments): 4.6%
inhibition at 10 µM ([9]; independent experiment 1): 9.6%
inhibition at 10 µM ([9]; independent experiment 2): -0.3%
inhibition at 10 µM ([10]; independent experiment 1): 8.8%
inhibition at 10 µM ([10]; independent experiment 2): 17.9%
inhibition at 10 µM ([11]; average of experiments): 17%
inhibition at 10 µM ([11]; independent experiment 1): 23.5%
inhibition at 10 µM ([11]; independent experiment 2): 10.4%
inhibition at 10 µM ([12]; average of experiments): 9.7%
inhibition at 10 µM ([12]; independent experiment 1): 10.4%
inhibition at 10 µM ([12]; independent experiment 2): 9%
